Results from PMC12363342, “Investigating the N-terminal linker histone H1 subtypes as substrates for JmjC lysine demethylases” (RSC Chemical Biology, 2025).
Square brackets hold non-standard residues; d marks the D form. Ends that are not written are not given here. Lys(Me3) = C[N+](C)(C)CCCC[C@H](N)C(=O)O

Columns and labels:
[1] = system: KDM3C; test: LC-MS demethylation activity assay, KDM3C; format: biochemical, human; settings: 2 μM KDM, 10 μM H1/H3 peptide, 10 μM FAS, 100 μM LAA, 20 μM 2OG, 50 mM HEPES pH 7.5, 2 h, room temperature, T (tri-) initial methylation state
Summary of the method: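 His6-tagged recombinant catalytic domains (2.0 μM) were used: KDM4A M1–L359, KDM4D M1–L359 and KDM3C L2157–L2500 from E. coli, and KDM5D M1–D775 from Sf9. Each acted on 10 μM H1 peptide in 50 mM HEPES pH 7.5 with 10 μM Fe(II), 100 μM ascorbate and 20 μM 2OG for 2 h at room temperature. Reactions were formic acid-quenched and analysed by LC-MS.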

[2] = target: T1, KDM4E (Homo sapiens, UniProt B2RXH2); test: LC-MS demethylation activity assay, KDM4E; format: biochemical; settings: room temperature; for substrate conversion (demethylation) by KDM4E / di-methylated product formed by KDM4E / mono-methylated product formed by KDM4E: 2 μM KDM4E, 10 μM peptide; for substrate conversion (demethylation) by KDM4E / KDM4E demethylation activity, T: 10 μM FAS, 100 μM LAA, 20 μM 2OG; for substrate conversion (demethylation) by KDM4E: HEPES pH 7.5, 2 h; for di-methylated product formed by KDM4E / mono-methylated product formed by KDM4E: standard conditions, 2 h; for KDM4E demethylation activity, T: 2 μM KDM, 10 μM H1/H3 peptide, 50 mM HEPES pH 7.5, 2 h, T (tri-) initial methylation state
T1 construct: KDM4DM1-L359,[39]; KDM4EM1-R336,[30]; His6 (N); made in house; host or cells: Escherichia coli
T1 sequence (B2RXH2 1-336): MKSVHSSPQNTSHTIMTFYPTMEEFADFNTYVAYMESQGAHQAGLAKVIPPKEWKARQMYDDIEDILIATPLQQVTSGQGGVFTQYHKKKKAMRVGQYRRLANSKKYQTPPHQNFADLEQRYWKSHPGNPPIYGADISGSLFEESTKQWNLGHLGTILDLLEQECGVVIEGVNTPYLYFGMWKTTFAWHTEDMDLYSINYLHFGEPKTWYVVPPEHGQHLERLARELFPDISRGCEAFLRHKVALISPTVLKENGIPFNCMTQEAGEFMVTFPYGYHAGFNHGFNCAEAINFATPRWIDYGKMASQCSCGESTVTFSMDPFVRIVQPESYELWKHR
Summary of the method: (§1)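 H1 isoform peptides (10 μM) were incubated 2 h at room temperature with 2 μM recombinant N-terminally His6-tagged catalytic domains in 50 mM HEPES pH 7.5 containing FAS (10 μM), ascorbate (100 μM) and 2OG (20 μM). Reactions were quenched with formic acid (1% final), and demethylation was analysed by LC-MS (Q-TOF).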

[3] = system: KDM6B; test: LC-MS demethylation activity assay, KDM6B; format: biochemical, human; settings: 2 μM KDM, 10 μM H1/H3 peptide, 10 μM FAS, 100 μM LAA, 20 μM 2OG, 50 mM HEPES pH 7.5, 2 h, room temperature, T (tri-) initial methylation state
Summary of the method: as §1

## KKKAAK[Lys(Me3)]AGGTPRKA [Peptide H1.2K26me3, 15-mer linker histone H1.2 residues 20-34 peptide, tri-methylated K26]
[1]
  KDM3C demethylation activity, T: ● [red]
[2]
  substrate conversion (demethylation) by KDM4E: ~80%
  di-methylated product formed by KDM4E: ~50%
  mono-methylated product formed by KDM4E: ~30%
  KDM4E demethylation activity, T: ● [green] (green dots indicate good demethylation (>50% conversion))
[3]
  KDM6B demethylation activity, T: ● [red]

## KKKAA[Lys(Me3)]KAGGTPRKA [Peptide H1.2K25me3, 15-mer linker histone H1.2 residues 20-34 peptide, tri-methylated K25]
[1]
  KDM3C demethylation activity, T: ● [red]
[2]
  substrate conversion (demethylation) by KDM4E: ~80%
  di-methylated product formed by KDM4E: ~50%
  mono-methylated product formed by KDM4E: ~30%
  KDM4E demethylation activity, T: ● [red]
[3]
  KDM6B demethylation activity, T: ● [red]

## KKKAR[Lys(Me3)]SAGAAKRKA [Peptide H1.4K25me3, 15-mer linker histone H1.4 residues 20-34 peptide, tri-methylated K25]
[1]
  KDM3C demethylation activity, T: ● [red]
[2]
  substrate conversion (demethylation) by KDM4E: ~95%
  di-methylated product formed by KDM4E: ~28%
  mono-methylated product formed by KDM4E: ~67%
  KDM4E demethylation activity, T: ● [red]
[3]
  KDM6B demethylation activity, T: ● [red]

## KKKATK[Lys(Me3)]AAGAGAAK [Peptide H1.5K26me3, 15-mer linker histone H1.5 residues 20-34 peptide, tri-methylated K26]
[1]
  KDM3C demethylation activity, T: ● [red]
[2]
  di-methylated product formed by KDM4E: ~40%
  mono-methylated product formed by KDM4E: ~16%
  KDM4E demethylation activity, T: ● [green] (green dots indicate good demethylation (>50% conversion))
[3]
  KDM6B demethylation activity, T: ● [red]

## KKKA[Lys(Me3)]KAGATAGKRK [Peptide H1.3K24me3, 15-mer linker histone H1.3 residues 20-34 peptide, tri-methylated K24]
[1]
  KDM3C demethylation activity, T: ● [red]
[2]
  substrate conversion (demethylation) by KDM4E: ~80%
  di-methylated product formed by KDM4E: ~42%
  mono-methylated product formed by KDM4E: ~38%
  KDM4E demethylation activity, T: ● [green] (green dots indicate good demethylation (>50% conversion))
[3]
  KDM6B demethylation activity, T: ● [red]
